Experimental data: patent US9663478B2, “Benzotriazine oxides as drugs targeting Mycobacterium tuberculosis” (priority 2011, dated 2017)
In brackets after ≈: the same amount, converted by molar mass. Read-outs that look alike come from different tables or passages of the source.

Columns and labels:
Assay in all cases: microbe, parasite or virus in culture
Format in all cases: cell-based, Mycobacterium tuberculosis
[1] = test system: Mtb strain resistant to Streptomycin ATCC 35820; conditions: for MIC: Mycobacterium tuberculosis
[2] = test system: Mtb strain resistant to Ethambutol ATCC 35837; conditions: for MIC: Mycobacterium tuberculosis; for MIC, Mtb strain resistant to Ethambutol ATCC 35837: Table 5
[3] = test system: Mtb strain resistant to Ethionamide ATCC 35830; conditions: for MIC: Mycobacterium tuberculosis; for MIC, Mtb strain resistant to Ethionamide ATCC 35830: Table 5
[4] = test system: Mtb strain resistant to P-aminosalicyclic acid ATCC 35821; conditions: for MIC: Mycobacterium tuberculosis; for MIC, Mtb strain resistant to P-aminosalicyclic acid ATCC 35821: Table 5
[5] = test system: Mtb strain resistant to Isoniazid ATCC 35822; conditions: for MIC: Mycobacterium tuberculosis
[6] = test system: Mtb strain resistant to Kanamycin ATCC 35827; conditions: for MIC: Mycobacterium tuberculosis
[7] = ATCC35820, 168 h, read-out: MIC, Mtb strain resistant to Streptomycin ATCC 35820
[8] = ATCC35837, read-out: MIC, Mtb strain resistant to Ethambutol ATCC 35837
[9] = ATCC35830, read-out: MIC, Mtb strain resistant to Ethionamide ATCC 35830
[10] = ATCC35821, read-out: MIC, Mtb strain resistant to P-aminosalicyclic acid ATCC 35821
[11] = ATCC35822, read-out: Activity against Mtb strain resistant to Isoniazid ATCC 35822
[12] = ATCC35820, read-out: Activity against Mtb strain resistant to Streptomycin ATCC 35820
[13] = ATCC35837, read-out: Activity against Mtb strain resistant to Ethambutol ATCC 35837
[14] = ATCC35830, read-out: Activity against Mtb strain resistant to Ethionamide ATCC 35830
[15] = ATCC35821, read-out: Activity against Mtb strain resistant to P-aminosalicyclic acid ATCC 35821
[16] = ATCC35827, read-out: Activity against Mtb strain resistant to Kanamycin ATCC 35827
[17] = ATCC35822, 168 h, read-out: MIC, Mtb strain resistant to Isoniazid ATCC 35822
[18] = ATCC35827, 168 h, read-out: MIC, Mtb strain resistant to Kanamycin ATCC 35827

Structure (SMILES) | MIC [1, 7] [µg/mL] | MIC [2, 8] [µg/mL] | MIC [3, 9] [µg/mL] | MIC [4, 10] [µg/mL] | MIC [5, 11] [µg/mL] | MIC [1, 12] [µg/mL] | MIC [3, 14] [µg/mL] | MIC [4, 15] [µg/mL] | MIC [6, 16] [µg/mL] | other results
CN(C)c1n[n+]([O-])c2cc3c(cc2[n+]1[O-])CCC3 [Compound 20s, 3-(dimethylamino)-7,8-dihydro-6H-indeno[5,6-e][1,2,4]triazine 1,4-dioxide] | < 0.07 | 0.31 (≈ 1.26 µM) | 0.15 (≈ 0.609 µM) | 0.15 (≈ 0.609 µM) |  |  |  |  |  | 
[O-][n+]1nc(N2CCCC2)[n+]([O-])c2cc3c(cc21)CCC3 [SRI-012530] |  |  |  |  | 0.31 (≈ 1.14 µM) | 0.16 (≈ 0.588 µM) | 0.62 (≈ 2.28 µM) | 0.31 (≈ 1.14 µM) | 0.63 (≈ 2.31 µM) | MIC [2, 13]: 0.62 µg/mL (≈ 2.28 µM)
CC(C)(C)Nc1n[n+]([O-])c2ccccc2[n+]1[O-] [SRI-003356] |  |  |  |  | 2.5 (≈ 10.7 µM) | 1.25 (≈ 5.34 µM) | 1.25 (≈ 5.34 µM) | 1.25 (≈ 5.34 µM) | 2.5 (≈ 10.7 µM) | 
CN(CCc1ccccc1)c1n[n+]([O-])c2cc3c(cc2[n+]1[O-])CCC3 [SRI-012565] |  |  |  |  | 0.07 (≈ 0.208 µM) |  |  |  | 0.15 (≈ 0.446 µM) | 
CN(Cc1ccccc1)c1n[n+]([O-])c2cc3c(cc2[n+]1[O-])CCC3 [SRI-012564] |  |  |  |  | < 0.07 |  |  |  | 0.15 (≈ 0.465 µM) | 
CCN(CC)c1n[n+]([O-])c2ccccc2[n+]1[O-] [SRI-009728] |  |  |  |  | 0.31 (≈ 1.32 µM) | 0.31 (≈ 1.32 µM) | 0.16 (≈ 0.683 µM) | 0.31 (≈ 1.32 µM) | 0.31 (≈ 1.32 µM) | MIC [2, 13]: 0.31 µg/mL (≈ 1.32 µM)
[O-][n+]1nc(NC2CCC2)[n+]([O-])c2cc3c(cc21)CCC3 [Compound 15fd, Cyclobutyl-(5,8-dioxy-2,3-dihydro-1H-5,6,8-triaza-cyclopenta[b]naphthalen-7-yl)-amine] |  |  |  |  |  |  |  |  |  | MIC, Mtb strain resistant to Isoniazid ATCC 35822 ([5]; Table 5): 1.2 µg/mL (≈ 4.41 µM); MIC, Mtb strain resistant to Streptomycin ATCC 35820 ([1]; Table 5): 0.31 µg/mL (≈ 1.14 µM); MIC, Mtb strain resistant to Ethambutol ATCC 35837 [2]: 0.62 µg/mL (≈ 2.28 µM); MIC, Mtb strain resistant to Ethionamide ATCC 35830 [3]: 0.62 µg/mL (≈ 2.28 µM); MIC, Mtb strain resistant to P-aminosalicyclic acid ATCC 35821 [4]: 0.62 µg/mL (≈ 2.28 µM); MIC, Mtb strain resistant to Kanamycin ATCC 35827 ([6]; Table 5): 1.2 µg/mL (≈ 4.41 µM)
CCNc1n[n+]([O-])c2cc3c(cc2[n+]1[O-])CCCC3 [SRI-012496] |  |  |  |  | 1.25 (≈ 4.8 µM) | 1.25 (≈ 4.8 µM) | 1.25 (≈ 4.8 µM) | 1.25 (≈ 4.8 µM) | 1.25 (≈ 4.8 µM) | MIC [2, 13]: 1.25 µg/mL (≈ 4.8 µM)
[O-][n+]1nc(N2CCCC2)[n+]([O-])c2cc3c(cc21)CCC3 [Compound 20q, 3-(pyrrolidin-1-yl)-7,8-dihydro-6H-indeno[5,6-e][1,2,4]triazine 1,4-dioxide] |  |  |  |  |  |  |  |  |  | MIC ([5]; ATCC35822, 168 h, Table 5, read-out: MIC, Mtb strain resistant to Isoniazid ATCC 35822): 0.31 µg/mL (≈ 1.14 µM); MIC ([1]; ATCC35820, 168 h, Table 5, read-out: MIC, Mtb strain resistant to Streptomycin ATCC 35820): 0.16 µg/mL (≈ 0.588 µM); MIC ([6]; ATCC35827, 168 h, Table 5, read-out: MIC, Mtb strain resistant to Kanamycin ATCC 35827): 0.63 µg/mL (≈ 2.31 µM)
CN(CCc1ccccc1)c1n[n+]([O-])c2cc3c(cc2[n+]1[O-])CCC3 [Compound 20u, 3-(methyl(phenethyl)amino)-7,8-dihydro-6H-indeno[5,6-e][1,2,4]triazine 1,4-dioxide] | < 0.07 | 0.31 (≈ 0.922 µM) | 0.15 (≈ 0.446 µM) | 0.15 (≈ 0.446 µM) |  |  |  |  |  | 
[O-][n+]1nc(N2CCCCC2)[n+]([O-])c2cc3c(cc21)CCC3 [Compound 20r, 3-(piperidin-1-yl)-7,8-dihydro-6H-indeno[5,6-e][1,2,4]triazine 1,4-dioxide] | 0.15 (≈ 0.524 µM) | 0.31 (≈ 1.08 µM) | 0.31 (≈ 1.08 µM) | 0.31 (≈ 1.08 µM) |  |  |  |  |  | 
CN(C)c1n[n+]([O-])c2cc3c(cc2[n+]1[O-])CCC3 [SRI-012563] |  |  |  |  | < 0.07 |  |  |  | 0.31 (≈ 1.26 µM) | 
CC1CCCCN1c1n[n+]([O-])c2cc3c(cc2[n+]1[O-])CCC3 (centres unmarked) [SRI-012567] |  |  |  |  | 0.31 (≈ 1.03 µM) |  |  |  | 0.62 (≈ 2.06 µM) | 
[O-][n+]1nc(NC2CC3CCC2C3)[n+]([O-])c2cc3c(cc21)CCCC3 (centres unmarked) [SRI-012498] |  |  |  |  | 2.5 (≈ 7.66 µM) | 1.25 (≈ 3.83 µM) | 1.25 (≈ 3.83 µM) | 1.25 (≈ 3.83 µM) | 1.25 (≈ 3.83 µM) | MIC [2, 13]: 1.25 µg/mL (≈ 3.83 µM)
[O-][n+]1nc(N2CCCCC2)[n+]([O-])c2cc3c(cc21)CCC3 [SRI-012562] |  |  |  |  | 0.15 (≈ 0.524 µM) |  |  |  | 0.31 (≈ 1.08 µM) | 
[O-][n+]1nc(NC2CCC2)[n+]([O-])c2cc3c(cc21)CCCC3 [SRI-012497] |  |  |  |  | 2.5 (≈ 8.73 µM) | 1.25 (≈ 4.37 µM) | 1.25 (≈ 4.37 µM) | 1.25 (≈ 4.37 µM) | 2.5 (≈ 8.73 µM) | MIC [2, 13]: 2.5 µg/mL (≈ 8.73 µM)
CS(=O)(=O)N1CCN(c2n[n+]([O-])c3cc4c(cc3[n+]2[O-])CCC4)CC1 [SRI-012568] |  |  |  |  | 2.5 (≈ 6.84 µM) | 2.5 (≈ 6.84 µM) | 0.62 (≈ 1.7 µM) | 2.5 (≈ 6.84 µM) | 2.5 (≈ 6.84 µM) | MIC [2, 13]: 2.5 µg/mL (≈ 6.84 µM)
CC(C)(C)Nc1n[n+]([O-])c2ccccc2[n+]1[O-] [Compound 8c, 3-(tert-butylamino)benzo[e][1,2,4]triazine 1,4-dioxide] | 1.2 (≈ 5.12 µM) | 2.5 (≈ 10.7 µM) | 1.2 (≈ 5.12 µM) | 1.2 (≈ 5.12 µM) |  |  |  |  |  | 
CN(Cc1ccccc1)c1n[n+]([O-])c2cc3c(cc2[n+]1[O-])CCC3 [Compound 20t, 3-(benzyl(methyl)amino)-7,8-dihydro-6H-indeno[5,6-e][1,2,4]triazine 1,4-dioxide] | < 0.07 | 0.15 (≈ 0.465 µM) | 0.07 (≈ 0.217 µM) | 0.07 (≈ 0.217 µM) |  |  |  |  |  | 
CCNc1n[n+]([O-])c2cc3c(cc2[n+]1[O-])CCC3 [Compound 15fa, 3-(ethylamino)-7,8-dihydro-6H-indeno[5,6-e][1,2,4]triazine 1,4-dioxide] | 0.63 (≈ 2.56 µM) | 1.2 (≈ 4.87 µM) | 1.2 (≈ 4.87 µM) | 1.2 (≈ 4.87 µM) |  |  |  |  |  | MIC [5, 17]: 2.5 µg/mL (≈ 10.2 µM); MIC [6, 18]: 1.2 µg/mL (≈ 4.87 µM)
[O-][n+]1nc(N2CCCC2)[n+]([O-])c2ccccc21 [SRI-012495] |  |  |  |  | 0.31 (≈ 1.33 µM) |  |  |  | 0.31 (≈ 1.33 µM) | 
CCNc1n[n+]([O-])c2cc(C)c(OC)cc2[n+]1[O-] [Compound 15ga, 3-(ethylamino)-6-methoxy-7-methylbenzo[e][1,2,4]triazine 1,4-dioxide] | 1.2 (≈ 4.8 µM) | 1.2 (≈ 4.8 µM) | 1.2 (≈ 4.8 µM) | 1.2 (≈ 4.8 µM) |  |  |  |  |  | MIC [5, 17]: 1.2 µg/mL (≈ 4.8 µM); MIC [6, 18]: 1.2 µg/mL (≈ 4.8 µM)
[O-][n+]1nc(NC2CCC2)[n+]([O-])c2cc3c(cc21)CCC3 [SRI-012403] |  |  |  |  | 1.25 (≈ 4.59 µM) |  |  |  | 1.25 (≈ 4.59 µM) | 
[O-][n+]1nc(N2CCCC2)[n+]([O-])c2ccccc21 [Compound 17q, 3-(pyrrolidin-1-yl)benzo[e][1,2,4]triazine 1,4-dioxide] | 0.02 (≈ 0.0861 µM) | 0.31 (≈ 1.33 µM) | 0.31 (≈ 1.33 µM) | 0.62 (≈ 2.67 µM) |  |  |  |  |  | 
CCNc1n[n+]([O-])c2cc3c(cc2[n+]1[O-])CCC3 [SRI-012286] |  |  |  |  | 2.5 (≈ 10.2 µM) | 0.63 (≈ 2.56 µM) | 1.25 (≈ 5.08 µM) | 1.25 (≈ 5.08 µM) | 1.25 (≈ 5.08 µM) | MIC [2, 13]: 1.25 µg/mL (≈ 5.08 µM)
CC1CCCCN1c1n[n+]([O-])c2cc3c(cc2[n+]1[O-])CCC3 (centres unmarked) [Compound 20w, 3-(2-methylpiperidin-1-yl)-7,8-dihydro-6H-indeno[5,6-e][1,2,4]triazine 1,4-dioxide] | 0.31 (≈ 1.03 µM) | 0.62 (≈ 2.06 µM) | 0.31 (≈ 1.03 µM) | 0.62 (≈ 2.06 µM) |  |  |  |  |  | 
O=S1(=O)CCN(c2n[n+]([O-])c3cc4c(cc3[n+]2[O-])CCC4)CC1 [SRI-012566] |  |  |  |  | 2.5 (≈ 7.43 µM) | 2.5 (≈ 7.43 µM) | 0.62 (≈ 1.84 µM) | 2.5 (≈ 7.43 µM) | 2.5 (≈ 7.43 µM) | MIC [2, 13]: 2.5 µg/mL (≈ 7.43 µM)
CCNc1n[n+]([O-])c2cccc(C)c2[n+]1[O-] [Compound 15ea, Ethyl-(5-methyl-1,4-dioxy-benzo[1,2,4]triazin-3-yl)-amine] |  |  |  |  |  |  |  |  |  | MIC, Mtb strain resistant to Isoniazid ATCC 35822 ([5]; Table 5): 0.62 µg/mL (≈ 2.82 µM); MIC, Mtb strain resistant to Streptomycin ATCC 35820 ([1]; Table 5): 0.16 µg/mL (≈ 0.727 µM); MIC, Mtb strain resistant to Ethambutol ATCC 35837 [2]: 0.62 µg/mL (≈ 2.82 µM); MIC, Mtb strain resistant to Ethionamide ATCC 35830 [3]: 0.31 µg/mL (≈ 1.41 µM); MIC, Mtb strain resistant to P-aminosalicyclic acid ATCC 35821 [4]: 0.31 µg/mL (≈ 1.41 µM); MIC, Mtb strain resistant to Kanamycin ATCC 35827 ([6]; Table 5): 0.62 µg/mL (≈ 2.82 µM)
